Patent US8703947B2, “Compounds for treatment of Alzheimer's disease” (Purdue Research Foundation, priority 2008, dated 2014)

Molecular target: memapsin 2 (Homo sapiens (Human), UniProt P56817)
Test: Inhibition of memapsin 2 catalytic activity toward fluorogenic substrate FS-2
Type: biochemical
Conditions: memapsin 2, pH 4, 37° C., 20 minutes pre-incubation, tight-binding model
Description: Inhibition of Memapsin 1, Memapsin 2, and Cathepsin D Catalytic Activity. A substrate peptide H3N-ELDLAVEFWHDR—CO2 (SEQ ID NO:1) (used for inhibition assay of memapsin 2, memapsin 1, and cathepsin D) was dissolved at 2 mg/mL in DMSO and diluted 1:100 in 0.1 M sodium acetate, pH 4.0 just prior to assay. Inhibitor dissolved in DMSO was diluted into 0.1 M sodium acetate, pH 4.0 (1:100 dilution). A 50 μL aliquot of the inhibitor solution in pH 4 buffer was combined with 150 μL of 0.1 M sodium acetate containing 100-200 nM of memapsin 1, memapsin 2, or cathepsin D. Following a pre-incubation at 37° C., the proteolytic assay was initated by addition of 50 μl of the substrate diluted into pH 4 buffer, and incubation continued at 37° C. Aliquots were removed at time intervals, and combined with an equal volume of MALDI-TOF matrix ([…] in acetone, 20 mg/mL) and immediately spotted in duplicate onto a stainless-steel MALDI sample plate. MALDI-TOF mass spectrometry was performed on a PE Biosystems Voyager DE instrument at the Molecular Biology Resource Center on campus. The instrument was operated at 25,000 accelerating volts in positive mode with a 150 ns delay. Ions with a mass-to-charge ratio (m/z) were detected in the range of 650-2000 atomic mass units. Data were analyzed by the Voyager Data Explorer module to obtain ion intensity data for mass species of substrates and corresponding products in a given mixture. Relative product formation was calculated as the ratio of signal intensity of the product to the sum of signal intensities of both product and the corresponding substrate. Relative product formed per unit time was obtained from non-linear regression analysis of the data representing the initial 15% formation of product using the model: 1−e^−kT where k was the relative hydrolytic rate constant and T was time in seconds. Alternatively, relative hydrolytic rates were determined using a fluorogenic cleavage assay (Ermolieff, J. et al., Biochemistry, 39: 12450-12456 (2000)). Initial rates from either method were expressed relative to uninhibited controls and the inhibition constant Ki was determined by a non-linear fit to a tight-binding model of competitive inhibition (Bieth, J., Bayer—Symposium V. Proteinase Inhibitors, pp 463-469, Spinger-Varlag, Berlin (1994)). Results are shown in
Inhibition of Memapsin 2. The potencies of compounds were determined by measurement of their inhibition of memapsin 2 catalytic activity toward a fluorescent substrate. Kinetic inhibition experiments were performed using the procedure as described in Ermolieff, et al. Biochemistry 39:12450-12456 (2000), the teachings of which are incorporated hereby in their entirety. Briefly, assays were performed at pH 4, 37° C., by pre-incubation of memapsin 2 enzyme with compound for 20 minutes. Activity measure was initiated by addition of a fluorogenic substrate FS-2 (Bachem Americas, Torrance, Calif.). Fluorescent signal increase over time was measured as a rate of hydrolysis of the peptide substrate. Inhibition of hydrolytic rate was expressed relative to uninhibited controls and fit to a model for tight-binding inhibitors (J. Bieth, in “Proteinase Inhibitors,” Bayer Symposium V, 463-469, 1974).

memapsin 2, sequence (P56817 46-501): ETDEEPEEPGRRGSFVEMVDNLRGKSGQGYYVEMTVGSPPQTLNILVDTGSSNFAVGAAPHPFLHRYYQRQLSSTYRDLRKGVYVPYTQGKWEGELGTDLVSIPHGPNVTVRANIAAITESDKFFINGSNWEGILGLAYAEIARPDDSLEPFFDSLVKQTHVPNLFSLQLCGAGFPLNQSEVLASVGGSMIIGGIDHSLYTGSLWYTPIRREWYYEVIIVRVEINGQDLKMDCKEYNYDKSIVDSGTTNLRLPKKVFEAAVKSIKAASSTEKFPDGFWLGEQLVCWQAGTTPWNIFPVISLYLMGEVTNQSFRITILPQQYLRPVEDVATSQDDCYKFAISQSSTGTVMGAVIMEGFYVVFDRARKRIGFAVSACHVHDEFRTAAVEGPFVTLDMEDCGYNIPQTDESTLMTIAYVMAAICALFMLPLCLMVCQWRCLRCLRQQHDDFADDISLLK

Ki	SMILES
> 10000 nM	COc1cccc(C[C@@H]2CC[C@H]([C@@H](O)CNC(=O)c3cc(C(=O)N[C@H](C)c4ccccc4)cc(N(C)S(C)(=O)=O)c3)N2)c1 [Comparison compound B, reference compound]
< 1000 nM	Cc1csc([C@H]2CCCN2C(=O)c2cccc(C(=O)N[C@@H](Cc3ccccc3)[C@H](O)[C@@H]3NCCN(Cc4ccccc4)C3=O)c2)n1 [GRL-0299]
< 1000 nM	COc1cccc(CN2CCN[C@@H]([C@@H](O)[C@H](Cc3ccccc3)NC(=O)c3cccc(C(=O)N4CCC[C@@H]4c4nc(C)cs4)c3)C2=O)c1 [GRL-1069AL]
> 10000 nM	Cc1nc(CN(C)C(=O)c2cccc(C(=O)N[C@@H](Cc3ccccc3)[C@H](O)C3NCCN(Cc4ccccc4)C3=O)c2)cs1 (single isomer, unassigned) [Example 11b]
> 1000 nM	COc1cccc(C[C@@H]2CC[C@H]([C@@H](O)CNC(=O)c3cc(C(=O)N[C@H](C)c4ccccc4)cc(N(C)S(C)(=O)=O)c3)N2C(=O)OC(C)(C)C)c1 [Comparison compound A, reference compound]
> 10000 nM	C[C@@H](NC(=O)c1cc(C(=O)N[C@@H](Cc2ccccc2)[C@H](O)C2Cc3ccccc3CN2)cc(N(C)S(C)(=O)=O)c1)c1ccccc1 (some centres unmarked) [GRL-0196-AL]
< 10000 nM	C[C@@H](NC(=O)c1cc(C(=O)N[C@@H](Cc2ccccc2)[C@H](O)C2NCCN(Cc3ccccc3)C2=O)cc(N(C)S(C)(=O)=O)c1)c1ccccc1 (some centres unmarked) [Example 10]
< 1000 nM	COc1cccc(CN2CCN[C@@H]([C@@H](O)[C@H](Cc3ccccc3)NC(=O)c3cc(C(=O)N[C@H](C)c4ccccc4)cc(N(C)S(C)(=O)=O)c3)C2=O)c1 [GRL-1079AL]
< 1000 nM	COc1ccc(CN2CCN[C@@H]([C@@H](O)[C@H](Cc3ccccc3)NC(=O)c3cccc(C(=O)N4CCC[C@@H]4c4nc(C)cs4)c3)C2=O)cc1 [GRL-0819AL]
< 1000 nM	Cc1nc(CN(C)C(=O)c2cccc(C(=O)N[C@@H](Cc3ccccc3)[C@H](O)C3NCCN(Cc4ccccc4)C3=O)c2)cs1 (single isomer, unassigned) [Example 11a]
< 1000 nM	COc1ccc(CN2CCN[C@@H]([C@@H](O)[C@H](Cc3ccccc3)NC(=O)c3cc(C(=O)N[C@H](C)c4ccccc4)cc(N(C)S(C)(=O)=O)c3)C2=O)cc1 [GRL-0889AL]
< 1000 nM	Cc1csc([C@H]2CCCN2C(=O)c2cccc(C(=O)N[C@@H](Cc3ccccc3)[C@H](O)[C@@H]3NCCN(CC(C)C)C3=O)c2)n1 [GRL-0669AL]
< 1000 nM	CC(C)CN1CCN[C@@H]([C@@H](O)[C@H](Cc2ccccc2)NC(=O)c2cc(C(=O)N[C@H](C)c3ccccc3)cc(N(C)S(C)(=O)=O)c2)C1=O [GRL-0849AL]

System: Aβ production in Chinese hamster ovary cells that over-express human APP695 with the London and Swedish mutations
Test: Cellular Aβ IC50 determination (Aβ40 sandwich ELISA)
Type: cell-based
Conditions: Cricetulus griseus; Aβ40 content after 24 h incubation, CHO cells over-expressing human APP695
Description: Cellular Aβ IC50 Determinations. The potency of compounds against memapsin 2 catalytic activity was determined in a cellular assay of Aβ production. […] Chinese hamster ovary cells that over-express human APP695 with the London and Swedish mutations were seeded in multi-well plates at 10% confluency. Compounds are dissolved in DMSO to concentrations near 1 mM, and diluted into culture media to a final concentration near 4 μM (final 0.4% DMSO). Compounds were diluted serially and applied to cells in multi-well plates 48 h after seeding. Incubation was continued in 5% CO2 at 37 degrees C. for 24 h. Aliquots were removed and assayed for Aβ40 content using a sandwich ELISA (BioSource International). Amount of Aβ40 over the range of concentration of compounds, relative to control incubations, were fit to a 4-parameter IC50 model.

IC50	SMILES
< 10000 nM	Cc1nc(CN(C)C(=O)c2cccc(C(=O)N[C@@H](Cc3ccccc3)[C@H](O)C3NCCN(Cc4ccccc4)C3=O)c2)cs1 (single isomer, unassigned) [Example 11a]
